Source: ChEMBL document CHEMBL1153577, “2D- and 3D-QSAR studies on 54 anti-tumor Rubiaceae-type cyclopeptides” (Eur J Med Chem, 2009)

System: P388
Assay: Cytotoxicity against mouse P388 cell
Assay type: functional, cell-based
Conditions: Mus musculus, P388

SMILES	IC50 [µM]
C/C=C/c1ccc(C[C@H]2C(=O)N[C@@H](C)C(=O)N(C)[C@H]3Cc4ccc(cc4)Oc4cc(ccc4OC)C[C@@H](C(=O)N[C@H](C)C(=O)N[C@@H](C)C(=O)N2C)N(C)C3=O)cc1	0.00501
COC(=O)C[C@@H]1NC(=O)[C@@H](C)NC(=O)[C@@H]2Cc3ccc(OC)c(c3)Oc3ccc(cc3)C[C@@H](C(=O)N2C)N(C)C(=O)[C@H](C)NC(=S)[C@H](Cc2ccc(OC)cc2)N(C)C1=O	0.00479
COc1ccc(C[C@H]2C(=O)N[C@@H](C)C(=O)N(C)[C@H]3Cc4ccc(cc4)Oc4cc(ccc4OC)C[C@@H](C(=O)N[C@H](C)C(=O)N[C@@H](CS)C(=O)N2C)N(C)C3=O)cc1	0.363
COc1ccc(C[C@H]2C(=O)N[C@@H](C)C(=O)N(C)[C@H]3Cc4ccc(cc4)Oc4cc(ccc4OC)C[C@@H](C(=O)N[C@H](C)C(=O)N[C@@H](CO)C(=O)N2C)N(C)C3=O)cc1	0.0141
COc1ccc(C[C@H]2C(=O)N[C@@H](C)C(=O)N(C)[C@H]3Cc4ccc(cc4)Oc4cc(ccc4OC)C[C@@H](C(=O)N[C@H](C)C(=O)N[C@@H](CCCO)C(=O)N2C)N(C)C3=O)cc1	0.174
COc1ccc(C[C@H]2C(=O)N[C@@H](C)C(=O)N(C)[C@H]3Cc4ccc(c(O)c4)Oc4cc(ccc4O)C[C@@H](C(=O)N[C@H](C)C(=O)N[C@@H](C)C(=O)N2C)N(C)C3=O)cc1	9.12
COc1ccc(C[C@H]2C(=O)N[C@@H](C)C(=O)N(C)[C@H]3Cc4ccc(cc4)Oc4cc(ccc4OC)C[C@@H](C(=O)N[C@H](C)C(=O)N4CCC[C@H]4C(=O)N2C)N(C)C3=O)cc1	0.1
COc1ccc(C[C@H]2C(=O)N[C@@H](C)C(=O)N(C)[C@H]3Cc4ccc(cc4)Oc4cc(ccc4OC)C[C@@H](C(=O)N[C@H](C)C(=O)NC4(SCCS4)C(=O)N2C)N(C)C3=O)cc1	0.631
C=C[C@@H]1NC(=O)[C@@H](C)NC(=O)[C@@H]2Cc3ccc(OC)c(c3)Oc3ccc(cc3)C[C@@H](C(=O)N2C)N(C)C(=O)[C@H](C)NC(=O)[C@H](Cc2ccc(OC)cc2)N(C)C1=O	0.0257
COc1ccc(C[C@H]2C(=S)N[C@@H](C)C(=O)N(C)[C@H]3Cc4ccc(cc4)Oc4cc(ccc4OC)C[C@@H](C(=O)N[C@H](C)C(=S)N[C@@H](C)C(=O)N2C)N(C)C3=O)cc1	0.0055
COc1ccc(C[C@H]2C(=O)N[C@@H](C)C(=O)N(C)[C@H]3Cc4ccc(c(O)c4)Oc4cc(ccc4OC)C[C@@H](C(=O)N[C@H](C)C(=O)N[C@@H](C)C(=O)N2C)N(C)C3=O)cc1O	15.1
CCCc1ccc(C[C@H]2C(=O)N[C@@H](C)C(=O)N(C)[C@H]3Cc4ccc(cc4)Oc4cc(ccc4OC)C[C@@H](C(=O)N[C@H](C)C(=O)N[C@@H](C)C(=O)N2C)N(C)C3=O)cc1	0.0257
COc1ccc(C[C@H]2C(=O)N[C@@H](C)C(=O)N(C)[C@H]3Cc4ccc(cc4)Oc4cc(ccc4OC)C[C@@H](C(=O)N[C@H](C)C(=O)N[C@@H](CC(=O)O)C(=O)N2C)N(C)C3=O)cc1	1.2
CCc1ccc(C[C@H]2C(=O)N[C@@H](C)C(=O)N(C)[C@H]3Cc4ccc(cc4)Oc4cc(ccc4OC)C[C@@H](C(=O)N[C@H](C)C(=O)N[C@@H](C)C(=O)N2C)N(C)C3=O)cc1	0.00933
COc1ccc(C[C@H]2C(=S)N[C@@H](C)C(=O)N(C)[C@H]3Cc4ccc(cc4)Oc4cc(ccc4O)C[C@@H](C(=O)N[C@H](C)C(=O)N[C@@H](C)C(=O)N2C)N(C)C3=O)cc1	0.00115
C=CC[C@@H]1NC(=O)[C@@H](C)NC(=O)[C@@H]2Cc3ccc(OC)c(c3)Oc3ccc(cc3)C[C@@H](C(=O)N2C)N(C)C(=O)[C@H](C)NC(=O)[C@H](Cc2ccc(OC)cc2)N(C)C1=O	0.0389
COc1ccc(C[C@H]2C(=O)N[C@@H](C)C(=O)N(C)[C@H]3Cc4ccc(cc4)Oc4cc(ccc4OC)C[C@@H](C(=O)N[C@H](C)C(=O)N[C@@H](CSC(C)=O)C(=O)N2C)N(C)C3=O)cc1	0.00977
COc1ccc(C[C@H]2C(=O)N[C@@H](C)C(=O)N(C)[C@H]3Cc4ccc(cc4)Oc4cc(ccc4OC)C[C@@H](C(=O)N[C@H](C)C(=O)N[C@@H](CCCCO)C(=O)N2C)N(C)C3=O)cc1	0.219
COc1ccc(C[C@H]2C(=O)N[C@@H](C)C(=O)N(C)[C@H]3Cc4ccc(cc4)Oc4cc(ccc4OC)C[C@@H](C(=O)N[C@H](C)C(=O)N[C@@H](CCCN=[N+]=[N-])C(=O)N2C)N(C)C3=O)cc1	0.0355
COc1ccc(C[C@H]2C(=O)N[C@@H](C)C(=O)N(C)[C@H]3Cc4ccc(cc4)Oc4cc(ccc4OC)C[C@@H](C(=O)N[C@H](C)C(=O)N4CCCC[C@H]4C(=O)N2C)N(C)C3=O)cc1	0.0977
COc1ccc(C[C@H]2C(=S)N[C@@H](C)C(=O)N(C)[C@H]3Cc4ccc(cc4)Oc4cc(ccc4OC)C[C@@H](C(=O)N[C@H](C)C(=O)N[C@@H](C)C(=O)N2C)N(C)C3=O)cc1	0.000741

SMILES	IC50 [µM]
COc1ccc2cc1Oc1ccc(cc1)C[C@H]1C(=O)N(C)[C@@H](C2)C(=O)N[C@H](C)C(=O)N[C@@H](C)C(=O)N(C)[C@@H](Cc2ccccc2)C(=O)N[C@@H](C)C(=O)N1C	0.295
COc1ccc(C[C@H]2C(=O)N[C@@H](C)C(=O)N(C)[C@H]3Cc4ccc(cc4)Oc4cc(ccc4OC)C[C@@H](C(=O)N[C@H](C)C(=O)N[C@@H](CCC(=O)O)C(=O)N2C)N(C)C3=O)cc1	0.219
CCC[C@@H]1NC(=O)[C@@H](C)NC(=O)[C@@H]2Cc3ccc(OC)c(c3)Oc3ccc(cc3)C[C@@H](C(=O)N2C)N(C)C(=O)[C@H](C)NC(=O)[C@H](Cc2ccc(OC)cc2)N(C)C1=O	0.0138
COc1ccc(C[C@H]2C(=O)N[C@@H](C)C(=O)N(C)[C@H]3Cc4ccc(cc4)Oc4cc(ccc4OC)C[C@@H](C(=O)N[C@H](C)C(=O)N[C@@H](CCO)C(=O)N2C)N(C)C3=O)cc1	0.0603
COC(=O)C[C@@H]1NC(=O)[C@@H](C)NC(=O)[C@@H]2Cc3ccc(OC)c(c3)Oc3ccc(cc3)C[C@@H](C(=O)N2C)N(C)C(=O)[C@H](C)NC(=O)[C@H](Cc2ccc(OC)cc2)N(C)C1=O	0.0417
COC(=O)CC[C@@H]1NC(=O)[C@@H](C)NC(=O)[C@@H]2Cc3ccc(OC)c(c3)Oc3ccc(cc3)C[C@@H](C(=O)N2C)N(C)C(=O)[C@H](C)NC(=O)[C@H](Cc2ccc(OC)cc2)N(C)C1=O	0.0589
COc1ccc(C[C@H]2C(=S)N[C@@H](C)C(=O)N(C)[C@H]3Cc4ccc(cc4)Oc4cc(ccc4OC)C[C@@H](C(=S)N[C@H](C)C(=O)N[C@@H](C)C(=O)N2C)N(C)C3=O)cc1	0.00214
COc1ccc(C[C@H]2C(=O)N[C@@H](C)C(=O)N(C)[C@H]3Cc4ccc(cc4)Oc4cc(ccc4OC)C[C@@H](C(=O)N[C@H](C)C(=O)N[C@@H](CC=O)C(=O)N2C)N(C)C3=O)cc1	0.0339
COc1ccc(C[C@@H]2NC(=O)[C@H](C)NC(=O)[C@@H](C)NC(=O)[C@@H]3Cc4ccc(OC)c(c4)Oc4ccc(cc4)C[C@@H](C(=O)N3C)N(C)C(=O)[C@H](C)NC2=O)cc1	0.12
C[C@@H]1NC(=O)[C@@H](C)NC(=O)[C@@H]2Cc3cccc(c3)Oc3ccc(cc3)C[C@@H](C(=O)N2C)N(C)C(=O)[C@H](C)NC(=O)[C@H](Cc2ccccc2)N(C)C1=O	0.525
COc1ccc2cc1Oc1ccc(cc1)C[C@H]1C(=O)N(C)[C@@H](C2)C(=O)N[C@H](C)C(=O)N[C@@H](C)C(=O)N(C)[C@@H](Cc2ccc(C)cc2)C(=O)N[C@@H](C)C(=O)N1C	0.024
COc1ccc(C[C@H]2C(=O)N[C@@H](C)C(=O)N(C)[C@H]3Cc4ccc(cc4)Oc4cc(ccc4OC)C[C@@H](C(=O)N[C@H](C)C(=O)N[C@@H](CCSC)C(=O)N2C)N(C)C3=O)cc1	0.0204
COc1ccc(C[C@H]2C(=O)N[C@@H](C)C(=O)N(C)[C@H]3Cc4ccc(cc4)Oc4cc(ccc4OC)C[C@@H](C(=O)N[C@H](C)C(=O)N[C@@H](C)C(=O)N2C)N(C)C3=O)cc1O	0.214
C=Cc1ccc(C[C@H]2C(=O)N[C@@H](C)C(=O)N(C)[C@H]3Cc4ccc(cc4)Oc4cc(ccc4OC)C[C@@H](C(=O)N[C@H](C)C(=O)N[C@@H](C)C(=O)N2C)N(C)C3=O)cc1	0.017
C[C@@H]1NC(=O)[C@@H](C)NC(=O)[C@@H]2Cc3ccc(O)c(c3)Oc3ccc(cc3)C[C@@H](C(=O)N2C)N(C)C(=O)[C@H](C)NC(=O)[C@H](Cc2ccccc2)N(C)C1=O	0.0427
COc1ccc(C[C@H]2C(=O)N[C@@H](C)C(=O)N(C)[C@H]3Cc4ccc(cc4)Oc4cc(ccc4OC)C[C@@H](C(=O)N[C@H](C)C(=O)N4C(=O)CC[C@H]4C(=O)N2C)N(C)C3=O)cc1	0.457
COc1ccc(C[C@H]2C(=O)N[C@@H](C)C(=O)N(C)[C@H]3Cc4ccc(cc4)Oc4cc(ccc4OC)C[C@@H](C(=S)N[C@H](C)C(=O)N[C@@H](C)C(=O)N2C)N(C)C3=O)cc1	0.00331
COc1ccc(C[C@H]2C(=S)N[C@@H](C)C(=O)N(C)[C@H]3Cc4ccc(cc4)Oc4cc(ccc4OC)C[C@@H](C(=O)N[C@H](C)C(=O)N[C@@H](C)C(=S)N2C)N(C)C3=O)cc1	0.00162
COc1ccc(C[C@H]2C(=O)N[C@@H](C)C(=O)N(C)[C@H]3Cc4ccc(c(O)c4)Oc4cc(ccc4OC)C[C@@H](C(=O)N[C@H](C)C(=O)N[C@@H](C)C(=O)N2C)N(C)C3=O)cc1 (stereo in doubt; 39)	4.79
COc1ccc(C[C@H]2C(=O)N[C@@H](C)C(=O)N(C)[C@H]3Cc4ccc(cc4)Oc4cc(ccc4O)C[C@@H](C(=O)N[C@H](C)C(=O)N[C@@H](C)C(=O)N2C)N(C)C3=O)cc1 [DEOXYBOUVARDIN]	0.00355

Same assay, conditions: p388

SMILES	pIC50
COc1ccc(C[C@H]2C(=O)N[C@@H](C)C(=O)N(C)[C@H]3Cc4ccc(c(O)c4)Oc4cc(ccc4OC)C[C@@H](C(=O)N[C@H](C)C(=O)N[C@@H](C)C(=O)N2C)N(C)C3=O)cc1 (stereo in doubt; 40)	5.24
